The source of these data is patent US5952390A, “10-substituted 1,8-dihydroxy-9(10H) anthracenone pharmaceuticals” (Teva Pharmaceutical Industries Ltd., priority 1998, dated 1999).

Data set [1] is described as follows: Reducing activity toward DPPH. The note with it: Table I (Addendum); equimolar amount of test compound. How it is done:
This assay followed generally the procedures of Blois, M. S., "Antioxidant Determinations by the Use of a Stable Free Radical", Nature, 181, 1199-1200 (1958) and Kato, K. et al., "Studies on Scavengers of Active Oxygen Species. 1. Synthesis and Biological Activity of 2-O-Alkylascorbic Acids", J. Med. Chem., 31, 793-798 (1988). In time studies, 1 ml of test compound solution (10^-4 M) was added to 1 ml of DPPH solution (10^-4 M), each in acetone/PBS (1+1 V/V), and the reduction of DPPH was followed spectrophotometrically at 516 nm. Plots of the reciprocal of DPPH concentrations against time gave straight lines, and the second-orderrate constants were obtained from the slopes and are expressed as mean values (n=3-6). In the cases where DPPH was very fast approximate values are given and expressed as kDPPH >100 or kDPPH >>100M^-1s^-1.
Because a radical scavenging antioxidant reacts rapidly with the stable free radical 2,2-diphenyl-1-picrylhydrazyl (DPPH), Blois, M. S., "Antioxidant Determination by the Use of a Stable Free Radical", Nature, 181, 1199-1200 (1958); Kato, K. et al., "Studies on Scavengers of Active Oxygen Species. I. Synthesis and Biological Activity of 2-O-Alkylascorbic Acids", J. Med. Chem., 31, 793-798 (1988), the reactivities of the new compounds with DPPH were determined by decrease in absorbance at 516 nm.
For orientation: The DPPH test is a chemical assay of radical scavenging.

Data set [2] is described as follows: Lipid peroxidation in bovine brain phospholipid liposomes. The conditions noted are these: Table I (Addendum); n = 3 or more; standard errors average 20%; read-out: LPO IC50. How it is done: Phospholipids were prepared essentially as described by Gutteridge, J. M. C., "The Measurement of Malondialdehyde in Peroxidised Ox-Brain Phospholipid Liposomes", Anal. Biochem., 82, 76-82 (1977). Bovine brain, cooled on ice, was freed from blood vessels and washed repeatedly with 0.15M NaCl, pH 7.4. It was cut to pieces and then macerated with an ultra-turrax, passed through a close-meshed sieve, and extracted four times with four times the volume of acetone. The extraction mixture was filtered by suction to remove the acetone, the residue was dried under vacuum, and then repeatedly extracted with petroleum ether (40-60) using twice the volume of the original brain homogenate. The combined extracts were filtered, dried at 45° C., and dissolved in ether (one fifth of the original brain volume). The mixture was treated with five times the volume of acetone, and the resulting precipitate was collected by suction-filtration, dried and stored under N2 at -20° C. in the dark. Bovine brain phospholipids were weighed into glass tubes and shaken in a vortex mixer (Heidolph) in the presence of five small glass beads (.phi. 4 mm) for 1 min. […]
The following reagents were added to glass tubes in the order and at the final concentrations stated. […] The organic layer was separated by centrifugation at 3000 rpm (15 min) and the absorbance at 532 nm was measured against butanol.

For data set [3], the system named is HaCaT cells. In words: HaCaT keratinocyte proliferation assay. In kind it is cell-based. The conditions noted are these: Homo sapiens, Table IV, N = 3, P < 0.01, read-out: AA IC50 (antiproliferative activity). The source says:
(§1) The biological assay methods were as follows: LDH release as described in Muller K, Huang H-S, Wiegrebe W, J. Med. Chem. 39, 3132-3138 (1996); bovine PMNL 5-LO assay as described in Muller K, Gurster D, Piwek S, Wiegrebe W, J. Med. Chem. 36, 4099-4107 (1993); and degradation of 2-deoxy-D-ribose as described in Muller K, Gurster D, Biochem. Pharmacol. 46, 1695-1704 (1993). HaCaT keratinocyte proliferation assay was generally described in Muller K, Leukel P, Zeireis K, Gawlik I, J. Med. Chem 37, 1660-1669 (1994). Specifically, the HaCaT cells were incubated with the test compounds (2 microM) for four hours at 37° C. Extracellular LDH activity was measured using the UV method with pyruvate and NADH and is expressly in mU/ml. Appropriate controls with the vehicle were performed (P<0.01; N=3, SD<10%).

Data set [4] deals with HaCaT cells. Put plainly: LDH release in HaCaT cells. In kind it is cell-based.
From the text: as §1
Geisel J.; Mahrle, G. "Lactate dehydrogenase release as an indicator of dithranol-induced membrane injury in cultured human keratinocytes", Arch. Dermatol. Res., 282, 325-329 (1990)). Cytotoxicity against cell cultures by the potent cell growth inhibitors was assessed by the activity of lactate dehydrogenase (LDH) activity release into the culture medium. The release of LDH is commonly used as an indicator of plasma membrane damage.

A short description of data set [5]: Stability at pH 7.4 in phosphate buffer under lipoxygenase assay incubation. It counts as physicochemical. The note with it: pH 7.4, phosphate buffer, lipoxygenase assay conditions. How it is done:
In connection with confirming the resistance to metabolic degradation of the compounds of the invention, the following procedures will be of interest. C-10-acylated compounds of Tanzer et al., Arch. Pharm., 322, 441-444 (1989) were determined to be stable at pH 7.5 when incubated for glucose-6-phosphate dehydrogenase inhibition assays. […] The compounds of the present invention are stable at pH 7.4 (in phosphate buffer) when incubated for the lipoxygenase assay. […] These procedures are expected to be useful in confirming the metabolic stability of the compounds of the invention.

Data set [6] has as its system LTB4 production in human neutrophils. The conditions noted are these: depending on cell density; cited from earlier work.
For data set [7] the following is noted: pH 7.5; cited from earlier work.
For the next data set, the system named is psoriasis. The note with it: in vivo; cited from earlier work.
The subject of a further data set is skin. The conditions noted are these: topical/therapeutic application; cited from earlier work.
Data set [8] deals with cultured human keratinocytes. The conditions noted are these: cited from earlier work.

`O=C1c2c(O)cccc2Cc2cccc(O)c21` [Anthralin, 1,8-dihydroxy-9(10H)-anthracenone] registered a kDPPH in data set [1] of 24.2 ± 4.2 M⁻¹ s⁻¹. For the same molecule, the IC50 – broadly, the concentration needed to halve the response being measured – in [2] was 12 µM; with HaCaT cells [3] it was 0.7 µM; in data set [6] it was 7 to 74 µM. Also, the “LDH release versus vehicle control, in words” value in the data set with HaCaT cells [4] (2 microM, 37° C., four hours) is “significantly exceeded that of the vehicle control”. Further, the LDH release in the data set on HaCaT cells [4] (Table IV, 2 μM test compound, N = 3, SD < 10%) is given as 294 mU; in the data set on HaCaT cells [4] (Table V, 2 μM test compound (Example 8)), 294 mU. Besides, in [5], the time to degradation was ≤ 2 h. Also, the “stability under G6PD inhibition assay incubation, in words” value in data set [7] is listed as “degraded almost completely”. Besides, in the data set on psoriasis, the “antipsoriatic efficacy, in words” value is recorded as “effective in the treatment of psoriasis”. The “irritation, in words” value with skin is “non-affected skin surrounding a psoriatic lesion to which anthralin is applied is frequently irritated”. Besides, the “membrane damage, in words” value in data set [8] is reported as “cause membrane damage, but did not directly lead to substantial membrane destruction”.
